Test results reported in US9302012B2, “Anti-bacterial siderophore-aminopenicillin conjugates” (University of Notre Dame Du Lac, priority 2012, dated 2016).

Tested on: collection of strains of P. aeruginosa
Assay: Agar well diffusion test (several strains)
Type: cell-based, Pseudomonas aeruginosa
Conditions: KW799/wt, PAO1, Pa4, and Pa6; Table 1
Method: Conjugates 10 and 11 were first evaluated for their antibacterial ability against a collection of strains of P. aeruginosa using the agar well diffusion test. The influence of iron concentration on antibacterial activity was probed as well by conducting assays in iron-rich and iron-deficient media.
All liquids and media were sterilized by autoclaving (121° C., 15 min) before use. All aqueous solutions and media were prepared using distilled, deionized, and filtered water (Millipore Milli-Q Advantage A10 Water Purification System). Luria broth (LB) was purchased from VWR. Mueller-Hinton No. 2 broth (MHII broth; cation adjusted) was purchased from Sigma-Aldrich (St. Louis, Mo.). Iron-deficient (—Fe) MHII broth was prepared by adding 0.8 mL of a 1 mg/mL sterile aq. solution of 2,2′-bipyridine to 49.2 mL of MHII broth. Iron-rich (+Fe) MHII broth was prepared by adding 0.8 mL of a 1 mg/mL sterile aq. solution of FeCl3 to 49.2 mL of MHII broth. Mueller-Hinton No. 2 agar (MHII agar; HiMedia Laboratories) was purchased from VWR. Iron-deficient (−Fe) MHII agar was prepared by adding 0.5 mL of a 1 mg/mL sterile aq. solution of 2,2′-bipyridine to 34 mL of melted MHII agar with gentle mixing. Iron-rich (+Fe) MHII agar was prepared by adding 0.5 mL of a 1 mg/mL sterile aq. solution of FeCl3 to 34 mL of melted MHII agar with gentle mixing. See also Wencewicz, T. A. Dissertation, University of Notre Dame, Notre Dame, Ind., 2011, for relevant techniques.
Antibacterial Susceptibility Testing by the Agar Diffusion Assay.
Antibacterial activity of the compounds was determined by a modified Kirby-Bauer agar diffusion assay. Overnight cultures of test organisms were grown in LB broth for 18-24 h and standard suspensions of […] were prepared in saline solution (0.9% NaCl) according to a 0.5 BaSO4 McFarland Standard. This standardized suspension (0.1 mL) was added to 34 mL of sterile, melted agar (−Fe or +Fe) tempered to 47-50° C. After gentle mixing, the inoculated agar media was poured into a sterile plastic petri dish (145 mm×20 mm) and allowed to solidify near a flame with the lid ajar for about 30 min. Wells of 9.0 mm diameter were cut from the petri dish agar and filled with exactly 50 μL of the test sample solution. The petri dish was incubated at 37° C. for 18-24 h and the inhibition zone diameters were measured (mm) with an electronic caliper after 24 h.

CC1(C)S[C@@H]2[C@H](NC(=O)[C@H](N)c3ccc(O)cc3)C(=O)N2[C@H]1C(=O)O [Amoxicillin, reference compound]
activity against wild type strains of P. aeruginosa (agar diffusion, in words): inactive or only weakly active

CC1(C)S[C@@H]2[C@H](NC(=O)[C@H](N)c3ccccc3)C(=O)N2[C@H]1C(=O)O [Ampicillin, reference compound]
activity against wild type strains of P. aeruginosa (agar diffusion, in words): inactive or only weakly active
